Series [1] has as its system Candida albicans. The experiment in a line: Antimicrobial activity against Candida albicans at 100 ug/disk by paper disk antibiotic sensitivity assay. Type of series: functional, organism-based.
Series [2] relates to Escherichia coli. The series can be described thus: Antimicrobial activity against Escherichia coli at 100 ug/disk by paper disk antibiotic sensitivity assay. Type of series: functional, organism-based.
Series [3] concerns Staphylococcus aureus. The series can be described thus: Antimicrobial activity against Staphylococcus aureus at 100 ug/disk by paper disk antibiotic sensitivity assay. The series is classed as functional. Particulars: read-out: IZ.
Another series relates to Carassius auratus. The experiment in a line: Toxicity in goldfish at 10 ug/ml. Type of series: organism-based. Particulars: in vivo.
In series [4] the test system is Bacillus subtilis. The series can be described thus: Antimicrobial activity against Bacillus subtilis at 100 ug/disk by paper disk antibiotic sensitivity assay. Type of series: functional. The note with it: read-out: IZ.
Series [5] deals with Bacillus subtilis. The series can be described thus: Antimicrobial activity against Bacillus subtilis at 50 ug/disk by paper disk antibiotic sensitivity assay. Type of series: functional. The note with it: read-out: IZ.
Series [6] deals with Pseudomonas aeruginosa. The experiment in a line: Antimicrobial activity against Pseudomonas aeruginosa at 100 ug/disk by paper disk antibiotic sensitivity assay. The series is classed as functional.
Series [7] concerns Bacillus subtilis. The series can be described thus: Antimicrobial activity against Bacillus subtilis at 25 ug/disk by paper disk antibiotic sensitivity assay. Type of series: functional. Particulars: read-out: IZ.
Series [8] concerns Serratia marcescens. The experiment in a line: Antimicrobial activity against Serratia marcescens at 100 ug/disk by paper disk antibiotic sensitivity assay. The series is classed as functional.
Series [9] relates to Staphylococcus aureus. The series can be described thus: Antimicrobial activity against Staphylococcus aureus at 25 ug/disk by paper disk antibiotic sensitivity assay. Type of series: functional. The note with it: read-out: IZ.
Series [10] relates to Staphylococcus aureus. The series can be described thus: Antimicrobial activity against Staphylococcus aureus at 50 ug/disk by paper disk antibiotic sensitivity assay. The series is classed as functional. The note with it: read-out: IZ.
For series [11], the system named is Serratia marcescens. The experiment in a line: Antimicrobial activity against Serratia marcescens at 200 ug/disk by paper disk antibiotic sensitivity assay. Type of series: functional. The note with it: read-out: IZ.
Another series concerns KB. The series can be described thus: Cytotoxicity against human KB cells. The series is classed as functional. Particulars: read-out: ID50 (the source's name).
The test system of series [12] is Candida albicans. The series can be described thus: Antimicrobial activity against Candida albicans at 200 ug/disk by paper disk antibiotic sensitivity assay. Type of series: functional. The note with it: read-out: IZ.
Series [13] has as its system Pseudomonas aeruginosa. The series can be described thus: Antimicrobial activity against Pseudomonas aeruginosa at 200 ug/disk by paper disk antibiotic sensitivity assay. Type of series: functional. Particulars: read-out: IZ.
Series [14] concerns Escherichia coli. The series can be described thus: Antimicrobial activity against Escherichia coli at 200 ug/disk by paper disk antibiotic sensitivity assay. The series is classed as functional. Particulars: read-out: IZ.

≈ marks a conversion by molar mass, not a printed value. Calls of active or inactive are those of the source. No cut-off for these calls is given here.

For the compound `OCc1cc(O)c(O)c(Br)c1Cc1cc(O)c(O)c(Br)c1`, the “inhibition zone (IZ)” value in the series with Candida albicans [1], in the series with Escherichia coli [2], in the series on Pseudomonas aeruginosa [6] and with Serratia marcescens [8] was “inactive” each time. In addition, the figures for the zone of inhibition at 100 µg/disc in the series with Staphylococcus aureus [3] and in the series on Bacillus subtilis [4] were 10 mm and 11 mm, respectively. In addition, the Activity result in the series with Carassius auratus is listed as “Non-toxic”. Besides, the zone of inhibition at 50 µg/disc with Bacillus subtilis [5] is 10 mm. The zone of inhibition at 25 µg/disc with Bacillus subtilis [7] came to 9 mm.
As for `OCc1cc(Br)c(O)c(O)c1Cc1ccc(O)c(Br)c1` [AVRAINVILLEOL], the “inhibition zone (IZ)” value in the series with Candida albicans [1], in the series with Escherichia coli [2] and with Pseudomonas aeruginosa [6] was “inactive” throughout. In addition, the zone of inhibition at 100 µg/disc in the series on Staphylococcus aureus [3] was 16 mm; with Bacillus subtilis [4] it was 14 mm. Further, in the series with Carassius auratus, the Activity result is on record as “Non-toxic”. The zone of inhibition at 50 µg/disc in the series on Bacillus subtilis [5] and with Staphylococcus aureus [10] was 12 mm each time. Moreover, the zone of inhibition at 25 µg/disc in the series on Staphylococcus aureus [9] turned out to be 10 mm; in the series with Bacillus subtilis [7], 9 mm. Also, the zone of inhibition at 200 µg/disc with Serratia marcescens [11] amounted to 9 mm. The IC50 in the series on KB was found to be 10 mg/L (≈ 24.7 µM).
On to `OCc1cc(O)c(O)c(Br)c1`, for which the zone of inhibition at 100 µg/disc was 13 mm in the series with Staphylococcus aureus [3], 12 mm in the series on Bacillus subtilis [4], 8 mm in the series on Pseudomonas aeruginosa [6] (read-out: IZ) and 9 mm in the series on Serratia marcescens [8] (read-out: IZ). Moreover, in the series on Carassius auratus, the Activity result is “Non-toxic”. The zone of inhibition at 200 µg/disc came out at 8 mm in the series on Candida albicans [12], 9 mm in the series on Pseudomonas aeruginosa [13], 10 mm in the series on Escherichia coli [14] and 13 mm in the series with Serratia marcescens [11]. The zone of inhibition at 50 µg/disc is 10 mm in the series with Bacillus subtilis [5] and 11 mm in the series with Staphylococcus aureus [10]. In addition, the zone of inhibition at 25 µg/disc with Staphylococcus aureus [9] and with Bacillus subtilis [7] was 8 mm in each case. Besides, the IC50 in the series with KB came out at 8.9 mg/L (≈ 40.6 µM).

(Values after ChEMBL document CHEMBL1150717, “5'-Hydroxyisoavrainvilleol, a new diphenylmethane derivative from the tropical green alga Avrainvillea nigricans” (J Nat Prod, 1987).)
